Activity calls are given as the source filed them. The rule behind the calls is not given here.
What was measured:
[1] = Cytotoxicity against human HEK-Blue hNOD2 cells assessed as metabolic activity at 10 uM incubated for 18 hes by MTT assay; type: toxicity, cell-based; conditions: hek-blue hnod2, 10 µM
PBMC [2] = experiment: Immunomodulatory activity in human PBMC cells assessed as increase in IL-4 level at 2 uM incubated for 18 hrs y flow cytometry analysis; type: functional, cell-based
How it was run: (§1)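 Human donor PBMCs (Ficoll-Paque; 1 × 10^6 cells/mL, 500 μL, 48-well plates) were treated with compounds at 2 μM or 0.1% DMSO vehicle without LPS for 18 h at 37 °C, 5% CO2. Cytokines in cell-free supernatants were quantified with the LEGENDplex Human Essential Immune Response Panel on a flow cytometer against kit recombinant standard curves. Four independent replicates; two-way ANOVA with Tukey's test.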

PBMC [3] = experiment: Immunomodulatory activity in human PBMC cells assessed as increase in IL-2 level at 2 uM incubated for 18 hrs y flow cytometry analysis; type: functional, cell-based; how it was run: as §1
PBMC [4] = experiment: Immunomodulatory activity in human PBMC cells assessed as increase in IP-10 level at 2 uM incubated for 18 hrs y flow cytometry analysis; type: functional, cell-based; how it was run: as §1
PBMC [5] = experiment: Immunomodulatory activity in human PBMC cells assessed as increase in IL-1beta level at 2 uM incubated for 18 hrs y flow cytometry analysis; type: functional, cell-based; how it was run: as §1
PBMC [6] = experiment: Immunomodulatory activity in human PBMC cells assessed as increase in TNF-alpha level at 2 uM incubated for 18 hrs y flow cytometry analysis; type: functional, cell-based; how it was run: as §1
PBMC [7] = experiment: Immunomodulatory activity in human PBMC cells assessed as increase in MCP-1 level at 2 uM incubated for 18 hrs y flow cytometry analysis; type: functional, cell-based; how it was run: as §1
PBMC [8] = experiment: Immunomodulatory activity in human PBMC cells assessed as increase in IL-17A level at 2 uM incubated for 18 hrs y flow cytometry analysis; type: functional, cell-based; how it was run: as §1
PBMC [9] = experiment: Immunomodulatory activity in human PBMC cells assessed as increase in IL-6 level at 2 uM incubated for 18 hrs y flow cytometry analysis; type: functional, cell-based; how it was run: as §1
PBMC [10] = experiment: Immunomodulatory activity in human PBMC cells assessed as increase in IL-10 level at 2 uM incubated for 18 hrs y flow cytometry analysis; type: functional, cell-based; how it was run: as §1
PBMC [11] = experiment: Immunomodulatory activity in human PBMC cells assessed as increase in IFN-gamma level at 2 uM incubated for 18 hrs y flow cytometry analysis; type: functional, cell-based; how it was run: as §1
PBMC [12] = experiment: Immunomodulatory activity in human PBMC cells assessed as increase in IL-12p70 level at 2 uM incubated for 18 hrs y flow cytometry analysis; type: functional, cell-based; how it was run: as §1
PBMC [13] = experiment: Immunomodulatory activity in human PBMC cells assessed as increase in IL-8 level at 2 uM incubated for 18 hrs y flow cytometry analysis; type: functional, cell-based; how it was run: as §1
PBMC [14] = experiment: Immunomodulatory activity in human PBMC cells assessed as increase in TGF-beta1 level at 2 uM incubated for 18 hrs y flow cytometry analysis; type: functional, cell-based; how it was run: as §1
PBMC [15] = experiment: Immunomodulatory activity in human PBMC cells assessed as increase in LPS-induced IL-1beta level at 2 uM incubated for 18 hrs y flow cytometry analysis; type: functional, cell-based
PBMC [16] = experiment: Immunomodulatory activity in human PBMC cells assessed as increase in LPS-induced IL-6 level at 2 uM incubated for 18 hrs y flow cytometry analysis; type: functional, cell-based
How it was run: (§2)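 Peripheral blood mononuclear cells from human donors were isolated with Ficoll-Paque and plated in 48-well plates at 1 × 10^6 cells/mL, 500 μL per well. Cells received compounds at 2 μM or 0.1% DMSO together with LPS (10 ng/mL) and were kept for 18 h at 37 °C, 5% CO2. Cytokine levels in cell-free supernatants were measured by flow cytometry with the LEGENDplex Human Essential Immune Response Panel, using the kit's recombinant standard curves. Data come from four independent replicates analysed by two-way ANOVA with Tukey's test.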

PBMC [17] = experiment: Immunomodulatory activity in human PBMC cells assessed as increase in LPS-induced IL-10 level at 2 uM incubated for 18 hrs y flow cytometry analysis; type: functional, cell-based; how it was run: as §2
PBMC [18] = experiment: Immunomodulatory activity in human PBMC cells assessed as increase in LPS-induced TNF-alpha level at 2 uM incubated for 18 hrs y flow cytometry analysis; type: functional, cell-based
PBMC [19] = experiment: Immunomodulatory activity in human PBMC cells assessed as increase in LPS-induced IL-12p70 level at 2 uM incubated for 18 hrs y flow cytometry analysis; type: functional, cell-based
PBMC [20] = experiment: Immunomodulatory activity in human PBMC cells assessed as increase in LPS-induced IFN-gamma level at 2 uM incubated for 18 hrs y flow cytometry analysis; type: functional, cell-based
PBMC [21] = experiment: Immunomodulatory activity in human PBMC cells assessed as increase in LPS-induced MCP-1 level at 2 uM incubated for 18 hrs y flow cytometry analysis; type: functional, cell-based; how it was run: as §2
PBMC [22] = experiment: Immunomodulatory activity in human PBMC cells assessed as increase in LPS-induced IP-10 level at 2 uM incubated for 18 hrs y flow cytometry analysis; type: functional, cell-based; how it was run: as §2
PBMC [23] = experiment: Cytotoxicity against human PBMC cells co-cultured with human K562 cells at 10 uM incubated for 4 hrs; type: functional, cell-based
How it was run: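 Killing was scored as the share of K562 cells positive for both CFSE and Sytox blue. Human PBMCs were seeded in 96-well plates at 4 × 10^5 per well and pretreated for 18 h with compounds at 10 μM, with 0.1% DMSO as vehicle. CFSE-stained K562 cells were then added at 1 × 10^4 per well (effector:target 40:1) for 4 h at 37 °C, 5% CO2, before Sytox blue staining and reading on an Attune NxT flow cytometer. Assays ran in duplicate across three independent biological replicates and were analysed by one-way ANOVA with Dunnett's test.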

[24] = Cytotoxicity against human PBMC cells at 10 uM incubated for 4 hrs; type: toxicity, cell-based
How it was run: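 Direct cytotoxicity was scored as the fraction of Sytox blue-positive cells among human PBMCs cultured without other cells. The PBMCs were exposed to compounds at 10 μM, with 0.1% DMSO as vehicle, alongside a K562 killing assay, then stained with Sytox blue dead cell stain and run on an Attune NxT flow cytometer, with analysis in FlowJo. Each condition was tested in duplicate across three independent biological replicates, and one-way ANOVA with Dunnett's test was applied.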

[25] = Cytotoxicity against human PBMC cells at 10 uM incubated for 4 hrs in presence of MDP; type: toxicity, cell-based
BMDC [26] = experiment: Adjuvant activity in OVA-immunized C57BL/6J mouse BMDC cells assessed as increase in CD4+ T cell activation incubated for 18 hrs; type: functional, cell-based
How it was run: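 Dendritic cells were derived from C57BL/6 mouse bone marrow by 7 days of culture with GM-CSF, then pretreated for 18 h with compounds at 10 μM together with 50 μg/mL ovalbumin and washed. These cells (1 × 10^4/well) were co-cultured with 5 × 10^4 CFSE-labelled OT II CD4+ T cells for 72 h at 37 °C in 5% CO2. T-cell activation was assessed by flow cytometry on live Thy1.2+/CD4+ cells, using CFSE dilution and CD25 expression as readouts. Assays were run in duplicate across two independent biological replicates and analysed with paired t tests.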

BMDC [27] = experiment: Adjuvant activity in OVA-immunized C57BL/6J mouse BMDC cells co-cultured with mouse CD4+ T cells assessed as increase in IL-2 level at 10 uM incubated for 18 hrs; type: functional, cell-based
BMDC [28] = experiment: Adjuvant activity in OVA-immunized C57BL/6J mouse BMDC cells co-cultured with mouse CD4+ T cells assessed as increase in IL-9 level at 10 uM incubated for 18 hrs; type: functional, cell-based
BMDC [29] = experiment: Adjuvant activity in OVA-immunized C57BL/6J mouse BMDC cells co-cultured with mouse CD4+ T cells assessed as increase in IL-6 production at 10 uM incubated for 18 hrs by flow cytometry analysis; type: functional, cell-based
BMDC [30] = experiment: Adjuvant activity in OVA-immunized C57BL/6J mouse BMDC cells co-cultured with mouse CD8+ T cells assessed as increase in IL-6 production at 10 uM incubated for 18 hrs by flow cytometry analysis; type: functional, cell-based
BMDC [31] = experiment: Adjuvant activity in OVA-immunized C57BL/6J mouse BMDC cells co-cultured with mouse CD8+ T cells assessed as increase in IL-9 production at 10 uM incubated for 18 hrs by flow cytometry analysis; type: functional, cell-based
BMDC [32] = experiment: Adjuvant activity in OVA-immunized C57BL/6J mouse BMDC cells co-cultured with mouse CD8+ T cells assessed as reduction in IFN-gamma production at 10 uM incubated for 18 hrs by flow cytometry analysis; type: functional, cell-based
BMDC [33] = experiment: Adjuvant activity in OVA-immunized C57BL/6J mouse BMDC cells co-cultured with mouse CD4+ T cells assessed as reduction in IFN-gamma production at 10 uM incubated for 18 hrs by flow cytometry analysis; type: functional, cell-based
BMDC [34] = experiment: Adjuvant activity in OVA-immunized C57BL/6J mouse BMDC cells co-cultured with mouse CD4+ T cells assessed as increase in IL-4 production at 10 uM incubated for 18 hrs by flow cytometry analysis; type: functional, cell-based

CCOC(=O)[C@@H](CCC(=O)NC12C[C@H]3C[C@@H](C1)C[C@@H](C2)C3)NC(=O)[C@@H](NC(=O)CNC(=O)/C=C/c1ccc(O)c(OC)c1)C(C)C
Activity [1]: Non-toxic
Activity (PBMC [2]): Active
Activity (PBMC [3]): Active
Activity (PBMC [4]): Active
Activity (PBMC [5]): Active
Activity (PBMC [6]): Active
Activity (PBMC [7]): Active
Activity (PBMC [8]): Active
Activity (PBMC [9]): Active
Activity (PBMC [10]): Active
Activity (PBMC [11]): Active
Activity (PBMC [12]): Active
Activity (PBMC [13]): Active
Activity (PBMC [14]): Active
Activity (PBMC [15]): Active
Activity (PBMC [16]): Active
Activity (PBMC [17]): Active
Activity (PBMC [18]): Active
Activity (PBMC [19]): Active
Activity (PBMC [20]): Active
Activity (PBMC [21]): Active
Activity (PBMC [22]): Active
Activity (PBMC [23]): inactive
Activity [24]: Non-toxic
Activity [25]: Non-toxic
Activity (BMDC [26]): Active
Activity (BMDC [27]): Active
Activity (BMDC [28]): Active
Activity (BMDC [29]): Active
Activity (BMDC [30]): Active
Activity (BMDC [31]): Active
Activity (BMDC [32]): Active
Activity (BMDC [33]): Active
Activity (BMDC [34]): Active

CCCC(=O)Oc1ccc(/C=C/C(=O)NCC(=O)N[C@H](C(=O)N[C@H](CCC(=O)OCC)C(=O)OCC)C(C)C)cc1OC
Activity [1]: Non-toxic
Activity (PBMC [2]): Active
Activity (PBMC [3]): Active
Activity (PBMC [4]): Active
Activity (PBMC [5]): Active
Activity (PBMC [6]): Active
Activity (PBMC [7]): Active
Activity (PBMC [8]): Active
Activity (PBMC [9]): Active
Activity (PBMC [10]): Active
Activity (PBMC [11]): Active
Activity (PBMC [12]): Active
Activity (PBMC [13]): Active
Activity (PBMC [14]): Active
Activity (PBMC [15]): Active
Activity (PBMC [16]): Active
Activity (PBMC [17]): Active
Activity (PBMC [18]): Active
Activity (PBMC [19]): Active
Activity (PBMC [20]): Active
Activity (PBMC [21]): Active
Activity (PBMC [22]): Active
Activity (PBMC [23]): inactive
Activity [24]: Non-toxic
Activity [25]: Non-toxic
Activity (BMDC [26]): Active
Activity (BMDC [27]): Active
Activity (BMDC [28]): Active
Activity (BMDC [30]): Active
Activity (BMDC [32]): Active
Activity (BMDC [33]): Active
Activity (BMDC [34]): Active

CC/C=C\C/C=C\C/C=C\C/C=C\C/C=C\CCCC(=O)Oc1ccc(/C=C/C(=O)NCC(=O)N[C@H](C(=O)N[C@H](CCC(=O)OCC)C(=O)OCC)C(C)C)cc1OC
Activity [1]: Non-toxic
Activity (PBMC [2]): Active
Activity (PBMC [3]): Active
Activity (PBMC [4]): Active
Activity (PBMC [5]): Active
Activity (PBMC [6]): Active
Activity (PBMC [7]): Active
Activity (PBMC [8]): Active
Activity (PBMC [9]): Active
Activity (PBMC [10]): Active
Activity (PBMC [11]): Active
Activity (PBMC [12]): Active
Activity (PBMC [13]): Active
Activity (PBMC [14]): Active
Activity (PBMC [15]): Active
Activity (PBMC [16]): Active
Activity (PBMC [17]): Active
Activity (PBMC [18]): Active
Activity (PBMC [19]): Active
Activity (PBMC [20]): Active
Activity (PBMC [21]): Active
Activity (PBMC [22]): Active
Activity (PBMC [23]): inactive
Activity [24]: Non-toxic
Activity [25]: Non-toxic
Activity (BMDC [26]): Active
Activity (BMDC [27]): Active
Activity (BMDC [28]): Active
Activity (BMDC [30]): Active
Activity (BMDC [32]): Active
Activity (BMDC [33]): Active
Activity (BMDC [34]): Active

From ChEMBL document CHEMBL6120969, “Distinctive Immune Signatures Driven by Structural Alterations in Desmuramylpeptide NOD2 Agonists” (J Med Chem, 2024)
